“And” between values parts separate entries of the source, which are not always exact repeats. Identical values can stand only once.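 How tested: cells in 96-well plates exposed to compound for 48 hours at five concentrations. GI50 marks 50% less growth. TGI denotes the concentration required for complete inhibition of growth.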 Bounds are passed on as bounds.

In this test the test system is MDA-MB-468 breast. As to the kind of experiment: NCI tumour cell line growth inhibition, 48 h.
In the case of `C=C(C)C(=O)Nc1ccc(NC(C)C)cc1`, the GI50 is > 100000 nM and the TGI was > 100000 nM.

As to `CCN(CC)c1ccc(/C=N/NC(=O)c2ccc(NS(C)(=O)=O)cc2)c(O)c1`, the GI50 is 331 nM and the TGI stood at 2930 nM.

Turning to `COc1cc(CSc2nc3ccc(C)cc3c(=O)n2-c2ccccc2)cc(OC)c1OC`, the GI50 is 266 nM and the TGI was found to be 2110 nM.

Regarding `O=C(NNc1nc2cc(F)ccc2n2c(CO)ccc12)c1cnccn1`, the GI50 is 448 nM and the TGI is 3340 nM.

Consider `COc1cnc2c(c1)C(=O)c1c-2n(CCCn2ccnc2)c(=O)c2cc(F)ccc12`, for which the GI50 was 19.7 nM and the TGI turned out to be 154 nM.

Turning to `C=C1C(=O)O[C@H]2[C@H]1CC/C(COC(=O)NCc1ccc(Cn3c(=O)sn(CCCl)c3=O)cc1)=C\CC[C@@]1(C)O[C@@H]21`, the GI50 was 1780 nM and the TGI worked out at 4520 nM.

Take `CC(C)(C)c1ccc(Oc2nccc(-c3c(-c4ccc(F)cc4)ncn3C3CCNCC3)n2)cc1`: the GI50 is 2580 nM and the TGI turned out to be 5970 nM.

With `Cc1cc(O)c(C(C)C)cc1S(=O)(=O)O` (tested in a mixture with another compound), the GI50 was 273 nM and the TGI stood at 1180 nM.

For the molecule `COc1ccc(C(=O)c2cc(OC)c(OC)c(OC)c2)cc1OC(=O)CCl`, the GI50 is 787 nM.

Take `O=C(CCCCCCCCC(=O)N/N=C\c1ccccc1O)N/N=C\c1ccccc1O`: the GI50 is 1620 nM and the TGI is 5230 nM.

As to `COc1c(C)c2c(c(O)c1C/C=C(\C)CCC(=O)O)C(=O)OC2`, the GI50 is 515 nM and the TGI is > 100000 nM.

For `CC(C)(C)OC(=O)N1CCN(CCn2cc(C(F)(F)F)c3c(Cl)ncnc32)CC1`, the GI50 was 1920 nM and the TGI came to 3770 nM.

Consider `CC(C)(C)n1cc(-c2ccnc(NCCCNS(=O)(=O)c3ccc(C(F)(F)F)cc3)c2)c(-c2cccc(O)c2)n1`, for which the GI50 was 1880 nM and the TGI is 4060 nM.

For the molecule `C=C1C(=O)O[C@H]2[C@H]1CC/C(COC(=O)NCc1cn(C)c3ccccc13)=C\CC[C@@]1(C)O[C@@H]21`, the GI50 was 836 nM and the TGI was 2950 nM.

Consider `CCCCCCCCCCCCCCCCCCOc1ccccc1CC(=O)OCC[N+]1(C)CCCCC1`, for which the GI50 was 1530 nM and the TGI was found to be 3830 nM.

`O=C(CCCCCCC(=O)Nc1ccccc1)NO`: the GI50 is 361 nM and 899 nM; the TGI is 12300 nM and 10800 nM.

For the molecule `C#Cc1c(F)ccc2cc(O)cc(-c3ncc4c(N5CC6CCC(C5)N6)nc(OC[C@@]56CCCN5C[C@H](F)C6)nc4c3F)c12`, the GI50 is 4780 nM and the TGI came out at 11900 nM.

Consider `COc1cc(NC(C)CCCNC2CN3CCC2CC3)c2ncccc2c1` (configuration not stated), for which the GI50 is 1710 nM and the TGI was found to be 3840 nM.

For `COC(=O)c1nc(-c2ccccc2)oc1S(=O)(=O)Cc1ccccc1`, the GI50 is 1850 nM and the TGI worked out at 4020 nM.

Regarding `Cc1c(C(N)=O)sc2c1C(=O)N(Cc1ccccc1)C1=NN=C(c3ccc(Cl)cc3)CN12`, the GI50 is 1930 nM and the TGI was 7540 nM.

In the case of `FC(F)(F)c1ccc(Nc2nc(-c3c(C(F)(F)F)nc4ccccn34)cs2)cc1`, the GI50 is 160 nM and the TGI was determined as 1040 nM.

As to `COc1ccc(-c2nc(-c3nc4ccc(OC)cc4[nH]3)c3ccccn23)cc1`, the GI50 is 4080 nM and the TGI amounted to 84500 nM.

Take `C#C[C@]1(O)CC[C@H]2[C@@H]3CC=C4c5sc(Nc6ccncc6)nc5CC[C@]4(C)[C@H]3CC[C@@]21C`: the GI50 is 477 nM and the TGI is 2270 nM.

Regarding `CN(C)CCN1C(=O)c2ccccc2N(C)c2ccccc21`, the GI50 was > 100000 nM and the TGI is > 100000 nM.

Consider `c1ccc2[nH]c(-c3ccc(-c4nccc5c4[nH]c4ccccc45)cc3)nc2c1`, for which the GI50 is 2520 nM and the TGI is 6620 nM.

`COc1ccc(-c2c[nH]c(C(=O)O)c2-c2cc(OC)c(OC)c(OC)c2)cc1`: the GI50 was 2240 nM and the TGI worked out at 6780 nM.

For the molecule `CCN(CC)CCCC(C)Nc1ccnc2cc(Oc3ccccc3)ccc12` (configuration not stated), the GI50 is 3060 nM and 3950 nM; the TGI is 13300 nM and 15100 nM.

As for `C=C1CCC2C3(C)COC(c4ccc(N(C)C)cc4)OC3CCC2(C)C1C/C=C1/C(=O)OCC1O` (configuration not stated), the GI50 is 1440 nM and the TGI was 3090 nM.

For `CCN(CC)CCCCNc1c2ccccc2[n+](C)c2c1[nH]c1ccccc12`, the GI50 was 222 nM and the TGI is 4850 nM.

For `Nc1c(C(=O)c2cccc(-c3ccncc3)c2)cnn1-c1ccc(F)cc1F`, the GI50 is 2180 nM and the TGI came out at 17900 nM.

Take `CN[C@@H](C)C(=O)N[C@H](C(=O)N1CCC[C@H]1C(=O)Nc1snnc1-c1ccccc1)C1CCCCC1`: the GI50 was 16000 nM and the TGI was 59400 nM.

Take `C[C@H]1[C@H](C)CC[C@]2(CO)CC[C@]3(C)C(=CC[C@@H]4[C@@]5(C)CCCNC(C)(C)[C@@H]5CC[C@]43C)[C@H]12`: the GI50 is 1700 nM and the TGI is 3440 nM.

Take `CC(C)[C@H](N)C(=O)N1CCC[C@H]1B(O)O`: the GI50 was > 100000 nM and the TGI is > 100000 nM.

`COc1ccc(C(=O)OC2C(OC3C(O)COC(O[C@H]4C[C@H]5[C@@H]6CC=C7C[C@@H](O)CC[C@]7(C)[C@H]6CC[C@]5(C)[C@H]4[C@H](C)C(=O)CCC(C)C)C3OC(N)=O)OCC(O)C2O)cc1` (some centres not stated): the GI50 was 78.1 nM and the TGI was 1600 nM.

As to `COc1ccc(-c2cc(=O)[nH]c3c(OC)c4ccccc4c(OC)c23)cc1`, the GI50 was 557 nM.

Take `COc1ccc2[nH]c(O)c(N=NC(=O)c3oc4ccccc4c3C)c2c1`: the GI50 is 2600 nM and the TGI was found to be 6530 nM.

For the molecule `CC/C=C1/C(=O)C=C[C@@H]1C/C=C\CCCC(=O)OC`, the GI50 is 2310 nM and the TGI amounted to 6040 nM.
